ChEMBL document CHEMBL1201862, “PubChem BioAssay data set” (2004)
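Test compounds were applied to cells in 96-well plates for 48 hours at 5 doses. GI50 marks 50% less growth.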 Activity calls are given as the source filed them. Cut-off read from the data, not from the text of the source: active = GI50 up to about 1.1 µM and inactive = higher.

Key:
Test in all cases: NCI-60 cell line screen, 48 h
A498 = system: A498
A549 = system: A549
CAKI-1 = system: CAKI-1
CCRF-CEM = system: CCRF-CEM
COLO 205 = system: COLO 205
DLD-1 = system: DLD-1
DMS-114 = system: DMS-114
DMS-273 = system: DMS-273
EKVX = system: EKVX
HCC 2998 = system: HCC 2998
HCT-116 = system: HCT-116
HCT-15 = system: HCT-15
HL-60 = system: HL-60
HOP-18 = system: HOP-18
HOP-62 = system: HOP-62
HOP-92 = system: HOP-92
HT-29 = system: HT-29
IGROV-1 = system: IGROV-1
K562 = system: K562
KM-20L2 = system: KM-20L2
KM12 = system: KM12
LOX IMVI = system: LOX IMVI
MCF7 = system: MCF7
MOLT-4 = system: MOLT-4
Malme-3M = system: Malme-3M
NCI-H226 = system: NCI-H226
NCI-H23 = system: NCI-H23
NCI-H460 = system: NCI-H460
NCI-H522 = system: NCI-H522
NCI/ADR-RES = system: NCI/ADR-RES
OVCAR-3 = system: OVCAR-3
OVCAR-4 = system: OVCAR-4
OVCAR-5 = system: OVCAR-5
OVCAR-8 = system: OVCAR-8
RPMI-8226 = system: RPMI-8226
RXF 393 = system: RXF 393
SF-268 = system: SF-268
SF-295 = system: SF-295
SF-539 = system: SF-539
SK-MEL-28 = system: SK-MEL-28
SK-MEL-2 = system: SK-MEL-2
SK-MEL-5 = system: SK-MEL-5
SK-OV-3 = system: SK-OV-3
SN12C = system: SN12C
SNB-19 = system: SNB-19
SNB-75 = system: SNB-75
SNB-78 = system: SNB-78
SW-620 = system: SW-620
U-251 = system: U-251
UACC-257 = system: UACC-257
UACC-62 = system: UACC-62
UO-31 = system: UO-31
XF498 = system: XF498
786-0 = system: 786-0
ACHN = system: ACHN
LXFL 529 = system: LXFL 529
M14 = system: M14
M19-MEL = system: M19-MEL
SR = system: SR
TK-10 = system: TK-10

`C=CCCCCn1c2ccccc2c2c(C)c3cnccc3c(C)c21` was tested, and the GI50 (A498) was 5.86 µM (inactive), the GI50 (A549) was 8.99 µM (inactive) and the GI50 (CAKI-1) was 8.69 µM (inactive). For the same compound, the GI50 (CCRF-CEM) was 4.04 µM (inactive), the GI50 (COLO 205) was 3.96 µM (inactive) and the GI50 (DLD-1) was 7.11 µM (inactive). For the same compound, the GI50 (DMS-114) was 3.94 µM (inactive), the GI50 (DMS-273) was 5.14 µM (inactive) and the GI50 (EKVX) was 12.9 µM (inactive). For the same compound, the GI50 (HCC 2998) was 10.1 µM (inactive), the GI50 (HCT-116) was 4.63 µM (inactive) and the GI50 (HCT-15) was 6.27 µM. The GI50 (HL-60) was 2.07 µM (inactive), the GI50 (HOP-18) was 16.1 µM (inactive) and the GI50 (HOP-62) was 16.2 µM (inactive). For the same compound, the GI50 (HOP-92) was 4.06 µM (inactive), the GI50 (HT-29) was 7 µM (inactive) and the GI50 (IGROV-1) was 11.7 µM (inactive). The GI50 (K562) was 3.32 µM (inactive), the GI50 (KM-20L2) was 6.38 µM (inactive) and the GI50 (KM12) was 8.47 µM (inactive). The GI50 (LOX IMVI) was 7.55 µM (inactive), the GI50 (MCF7) was 7.73 µM (inactive) and the GI50 (MOLT-4) was 2.83 µM (inactive). The GI50 (Malme-3M) was 9.02 µM (inactive), the GI50 (NCI-H226) was 10.9 µM (inactive) and the GI50 (NCI-H23) was 4.63 µM (inactive). For the same compound, the GI50 (NCI-H460) was 6.64 µM (inactive), the GI50 (NCI-H522) was 3.97 µM (inactive) and the GI50 (NCI/ADR-RES) was 5.07 µM (inactive). The GI50 (OVCAR-3) was 4.99 µM (inactive), the GI50 (OVCAR-4) was 6.5 µM (inactive) and the GI50 (OVCAR-5) was 16.9 µM (inactive). The GI50 (OVCAR-8) was 3.93 µM (inactive), the GI50 (RPMI-8226) was 2.81 µM (inactive) and the GI50 (RXF 393) was 6.25 µM (inactive). For the same compound, the GI50 (SF-268) was 11.3 µM (inactive), the GI50 (SF-295) was 8.71 µM (inactive) and the GI50 (SF-539) was 12.5 µM (inactive). The GI50 (SK-MEL-28) was 9.82 µM (inactive), the GI50 (SK-MEL-2) was 13.4 µM (inactive) and the GI50 (SK-MEL-5) was 5.08 µM (inactive). The GI50 (SK-OV-3) was 16.5 µM (inactive), the GI50 (SN12C) was 8.67 µM (inactive) and the GI50 (SNB-19) was 15.3 µM (inactive). The GI50 (SNB-75) was 3.88 µM (inactive), the GI50 (SNB-78) was 12.1 µM (inactive) and the GI50 (SW-620) was 4.54 µM (inactive). The GI50 (U-251) was 12.5 µM (inactive), the GI50 (UACC-257) was 4.5 µM (inactive) and the GI50 (UACC-62) was 11.2 µM (inactive). For the same compound, the GI50 (UO-31) was 5.75 µM (inactive) and the GI50 (XF498) was 1.95 µM (inactive).

With `C=CC(=O)NC(=N)NC#N` the GI50 (786-0) was 163 µM (inactive), the GI50 (A498) was 152 µM (inactive) and the GI50 (A549) was 195 µM (inactive). For the same compound, the GI50 (ACHN) was 121 µM (inactive), the GI50 (CAKI-1) was 69 µM (inactive) and the GI50 (CCRF-CEM) was 22.6 µM (inactive). The GI50 (COLO 205) was 149 µM (inactive), the GI50 (DLD-1) was 153 µM (inactive) and the GI50 (DMS-114) was 114 µM (inactive). For the same compound, the GI50 (EKVX) was > 100 µM (inactive), the GI50 (HCC 2998) was 182 µM (inactive) and the GI50 (HCT-116) was 189 µM (inactive). For the same compound, the GI50 (HCT-15) was 120 µM, the GI50 (HL-60) was 26.9 µM (inactive) and the GI50 (HOP-18) was 148 µM (inactive). For the same compound, the GI50 (HOP-62) was 210 µM (inactive), the GI50 (HOP-92) was > 39.4 µM (inactive) and the GI50 (HT-29) was 189 µM (inactive). The GI50 (IGROV-1) was 181 µM (inactive), the GI50 (K562) was 35.9 µM (inactive) and the GI50 (KM-20L2) was 150 µM (inactive). For the same compound, the GI50 (KM12) was > 100 µM (inactive), the GI50 (LOX IMVI) was > 74.6 µM (inactive) and the GI50 (LXFL 529) was 124 µM (inactive). For the same compound, the GI50 (M14) was 151 µM (inactive), the GI50 (M19-MEL) was 140 µM (inactive) and the GI50 (MCF7) was > 68.7 µM (inactive). The GI50 (Malme-3M) was 145 µM (inactive), the GI50 (NCI-H226) was 200 µM (inactive) and the GI50 (NCI-H23) was 188 µM (inactive). The GI50 (NCI-H460) was 176 µM (inactive), the GI50 (NCI-H522) was 18 µM (inactive) and the GI50 (NCI/ADR-RES) was > 100 µM (inactive). For the same compound, the GI50 (OVCAR-3) was 169 µM (inactive), the GI50 (OVCAR-4) was 168 µM (inactive) and the GI50 (OVCAR-5) was 177 µM (inactive). For the same compound, the GI50 (OVCAR-8) was 214 µM (inactive), the GI50 (RPMI-8226) was 22 µM (inactive) and the GI50 (RXF 393) was > 73.5 µM (inactive). For the same compound, the GI50 (SF-268) was 121 µM (inactive), the GI50 (SF-295) was 313 µM (inactive) and the GI50 (SF-539) was 164 µM (inactive). For the same compound, the GI50 (SK-MEL-28) was 131 µM (inactive), the GI50 (SK-MEL-2) was > 100 µM (inactive) and the GI50 (SK-MEL-5) was 165 µM (inactive). The GI50 (SK-OV-3) was 175 µM (inactive), the GI50 (SN12C) was 157 µM (inactive) and the GI50 (SNB-19) was 363 µM (inactive). For the same compound, the GI50 (SNB-75) was 155 µM (inactive), the GI50 (SNB-78) was 179 µM (inactive) and the GI50 (SR) was 150 µM (inactive). The GI50 (SW-620) was > 76.2 µM (inactive), the GI50 (TK-10) was 142 µM (inactive) and the GI50 (U-251) was 158 µM (inactive). The GI50 (UACC-257) was 125 µM (inactive), the GI50 (UACC-62) was 157 µM (inactive) and the GI50 (UO-31) was 176 µM (inactive). The GI50 (XF498) was 97.3 µM (inactive).
